Test results reported in patent publication US12501900B2, “Heterocyclyl pyridazine as fungicidal compounds” (Bayer Aktiengesellschaft, priority 2018, dated 2025).

How the values were obtained:
[1] = LogP determination; type: physicochemical; settings: reversed phase HPLC column; method [a]
[2] = test system: Alternaria brassicae; experiment: In vivo preventive test on Alternaria brassicae (leaf spot on radish or cabbage); settings: 144 h, 500 ppm of active ingredient, preventive spray on radish or cabbage, evaluated 6 days after inoculation, read-out: efficacy
Procedure: Example: In Vivo Preventive Test on Alternaria brassicae (Leaf Spot on Radish or Cabbage)
(§1) • Solvent: 5% by volume of Dimethyl sulfoxide • 10% by volume of Acetone • Emulsifier: 1 μl of Tween® 80 per mg of active ingredient
(§2) The active ingredients were made soluble and homogenized in a mixture of Dimethyl sulfoxide/Acetone//Tween®80 and then diluted in water to the desired concentration.
The young plants of radish or cabbage were treated by spraying the active ingredient prepared as described above. Control plants were treated only with an aqueous solution of Acetone/Dimethyl sulfoxide/Tween® 80.
After 24 hours, the plants were contaminated by spraying the leaves with an aqueous suspension of Alternaria brassicae spores. The contaminated radish or cabbage plants were incubated for 6 days at 20° C. and at 100% relative humidity.
The test was evaluated 6 days after the inoculation. 0% means an efficacy which corresponds to that of the control plants while an efficacy of 100% means that no disease was observed.

[3] = test system: Sphaerotheca fuliginea; experiment: In vivo preventive test on Sphaerotheca fuliginea (powdery mildew on cucurbits); settings: Podosphaera fuliginea, 192 h; 500 ppm of active ingredient; preventive spray on gherkin; evaluated 8 days after inoculation; read-out: efficacy
Procedure: Example: In Vivo Preventive Test on Sphaerotheca fuliginea (Powdery Mildew on Cucurbits)
as §1, §2
The young plants of gherkin were treated by spraying the active ingredient prepared as described above. Control plants were treated only with an aqueous solution of Acetone/Dimethyl sulfoxide/Tween® 80.
After 24 hours, the plants were contaminated by spraying the leaves with an aqueous suspension of Sphaerotheca fuliginea spores. The contaminated gherkin plants were incubated for 8 days at 20° C. and at 70-80% relative humidity.
The test was evaluated 8 days after the inoculation. 0% means an efficacy which corresponds to that of the control plants while an efficacy of 100% means that no disease was observed.

[4] = test system: Septoria tritici; experiment: In vivo preventive test on Septoria tritici (leaf spot on wheat); settings: Zymoseptoria tritici, in Triticum aestivum; 500 ppm of active ingredient; preventive spray on wheat; evaluated 19 days after inoculation; read-out: efficacy
Procedure: Example: In Vivo Preventive Test on Septoria tritici (Leaf Spot on Wheat)
as §1, §2
The young plants of wheat were treated by spraying the active ingredient prepared as described above. Control plants were treated only with an aqueous solution of Acetone/Dimethyl sulfoxide/Tween®80.
After 24 hours, the plants were contaminated by spraying the leaves with an aqueous suspension of Septoria tritici spores. The contaminated wheat plants were incubated for 72 hours at 17° C. and at 100% relative humidity and then for 15 days at 20° C. and at 90% relative humidity.
The test was evaluated 19 days after the inoculation. 0% means an efficacy which corresponds to that of the control plants while an efficacy of 100% means that no disease was observed.

[5] = test system: Alternaria alternata; experiment: Alternaria alternata in vitro cell test; type: cell-based; settings: 120 h, 20 ppm of active ingredient, liquid culture, 5 days incubation, read-out: efficacy (inhibition of fungal growth)
Procedure: (§3) Example: Alternaria alternata In Vitro Cell Test • Solvent: DMSO • Culture medium: 14.6 g anhydrous D-glucose (VWR), 7.1 g Mycological Peptone (Oxoid), 1.4 g granulated Yeast Extract (Merck), QSP 1 liter • Inoculum: spores suspension Fungicides were solubilized in DMSO and the solution used to prepare the required range of concentrations. The final concentration of DMSO used in the assay was ≤1%. A spore suspension of A. alternata was prepared and diluted to the desired spore density. Fungicides were evaluated for their ability to inhibit spore germination and mycelium growth in liquid culture assay. The compounds were added in the desired concentration to the culture medium with spores. After 5 days incubation, fungi-toxicity of compounds was determined by spectrometric measurement of mycelium growth. Inhibition of fungal growth was determined by comparing the absorbance values in wells containing the fungicides with the absorbance in control wells without fungicides.

[6] = test system: Botrytis cinerea; experiment: In vivo preventive test on Botrytis cinerea (grey mould); settings: 500 ppm of active ingredient, preventive spray on gherkin or cabbage, evaluated 4 to 5 days after inoculation, read-out: efficacy
Procedure: Example: In Vivo Preventive Test on Botrytis cinerea (Grey Mould)
as §1, §2
The young plants of gherkin or cabbage were treated by spraying the active ingredient prepared as described above. Control plants were treated only with an aqueous solution of Acetone/Dimethyl sulfoxide/Tween® 80.
After 24 hours, the plants were contaminated by spraying the leaves with an aqueous suspension of Botrytis cinerea spores. The contaminated gherkin plants were incubated for 4 to 5 days at 17° C. and at 90% relative humidity. The contaminated cabbage plants were incubated for 4 to 5 days at 20° C. and at 100% relative humidity.
The test was evaluated 4 to 5 days after the inoculation. 0% means an efficacy which corresponds to that of the control plants while an efficacy of 100% means that no disease was observed.

[7] = test system: Colletotrichum lindemuthianum; experiment: Colletotrichum lindemuthianum in vitro cell test; type: cell-based; settings: 144 h, 20 ppm of active ingredient, liquid culture, 6 days incubation, read-out: efficacy (inhibition of fungal growth)
Procedure: as §3, with “Example: Colletotrichum lindemuthianum” for “Example: Alternaria alternata”, “of C. lindemuthianum” for “of A. alternata”, “inhibit spores” for “inhibit spore”, “After 6” for “After 5”

[8] = test system: Septoria tritici; experiment: Septoria tritici in vitro cell test; type: cell-based; settings: Zymoseptoria tritici, 168 h; 20 ppm of active ingredient; liquid culture, 7 days incubation; read-out: efficacy (inhibition of fungal growth)
Procedure: as §3, with “Example: Septoria tritici” for “Example: Alternaria alternata”, “g Bacteriological” for “g Mycological”, “(Oxoid), •” for “(Oxoid),”, “Inoculum: spore” for “Inoculum: spores”, “of Septoria tritici” for “of A. alternata”, “After 7” for “After 5”

[9] = test system: Colletotrichum lindemuthianum; experiment: In vivo preventive test on Colletotrichum lindemuthianum (leaf spot on bean); settings: 168 h, 500 ppm of active ingredient, preventive spray on bean, evaluated 7 days after inoculation, read-out: efficacy
Procedure: Example: In Vivo Preventive Test on Colletotrichum lindemuthianum (Leaf Spot on Bean)
as §1, §2
The young plants of bean were treated by spraying the active ingredient prepared as described above. Control plants were treated only with an aqueous solution of Acetone/Dimethyl sulfoxide/Tween® 80.
After 24 hours, the plants were contaminated by spraying the leaves with an aqueous suspension of Colletotrichum lindemuthianum spores. The contaminated bean plants were incubated for 24 hours at 20° C. and at 100% relative humidity and then for 6 days at 20° C. and at 90% relative humidity.
The test was evaluated 7 days after the inoculation. 0% means an efficacy which corresponds to that of the control plants while an efficacy of 100% means that no disease was observed.

[10] = test system: Pyrenophora teres; experiment: In vivo preventive test on Pyrenophora teres (net blotch on barley); settings: 240 h, 500 ppm of active ingredient, preventive spray on barley, evaluated 10 days after inoculation, read-out: efficacy
Procedure: Example: In Vivo Preventive Test on Pyrenophora teres (Net Blotch on Barley)
as §1, §2
The young plants of barley were treated by spraying the active ingredient prepared as described above. Control plants were treated only with an aqueous solution of Acetone/Dimethyl sulfoxide/Tween®80.
After 24 hours, the plants were contaminated by spraying the leaves with an aqueous suspension of Pyrenophora teres spores. The contaminated barley plants were incubated for 48 hours at 20° C. and at 100% relative humidity and then for 8 days at 20° C. and at 70-80% relative humidity.
The test was evaluated 10 days after the inoculation. 0% means an efficacy which corresponds to that of the control plants while an efficacy of 100% means that no disease was observed.

## COC(=N)c1cc(Cl)nnc1Oc1cccc(C2CC2)c1 [25-01, methyl 6-chloro-3-(3-cyclopropylphenoxy)pyridazine-4-carboximidate]
[1]
  chromatographic logP: 3.08

## COC(=N)c1cc(Cl)nnc1Oc1cccc(C(F)(F)F)c1 [25-02, methyl 6-chloro-3-[3-(trifluoromethyl)phenoxy]pyridazine-4-carboximidate]
[1]
  chromatographic logP: 3

## Cc1cc(C(N)=NOCC=Cc2ccc3c(ccn3C)c2)c(Oc2cccc(C(F)(F)F)c2)nn1 [30-01, 6-methyl-N′-[3-(1-methylindol-5-yl)allyloxy]-3-[3-(trifluoromethyl)phenoxy]pyridazine-4-carboxamidine]
[1]
  chromatographic logP: 3.92

## Cc1ccc(CC2CON=C(c3cc(C)nnc3Oc3cccc(Cl)c3F)N2)c(Cl)c1 (stereo not drawn) [I-302]
[2]
  pest or weed control at 500 ppm: 90 to 100%
[3]
  pest or weed control at 500 ppm: 90 to 100%
[4]
  pest or weed control at 500 ppm: 90 to 100%
[5]
  inhibition at 20 ppm: 90 to 100%
[6]
  pest or weed control at 500 ppm: 90 to 100%
[7]
  inhibition at 20 ppm: 90 to 100%
[8]
  inhibition at 20 ppm: 90 to 100%
[9]
  pest or weed control at 500 ppm: 90 to 100%
[10]
  pest or weed control at 500 ppm: 90 to 100%
